Source: patent publication US7019144B2, “1,2,4-Triazole derivative, method for preparing the same, and pharmaceutical composition containing the same” (CJ Corp., priority 2002, dated 2006)

Columns and labels:
COX-2 = target: T1, COX-2 (Mus musculus, UniProt Q05769); test: Assay for the COX-2 inhibitory activity using RAW 264.7 cell line (PGE2, interferon γ/LPS induced); format: cell-based; conditions: for inhibition at 0.01 µM: RAW264.7, 10 nM test compound, RAW 264.7 cells, interferon γ + LPS, 18 hours, PGE2, read-out: Cyclooxygenase (COX) Inhibition (%) COX-2 (10 nM); for COX-2 inhibitory activity in comparison with the reference (Valdecoxib): 10 nM, RAW 264.7, comparison in words; for selectivity (COX-2 over COX-1): judged from Table 1, in words
T1 construct: host or cells: RAW 264.7 cells, aspirin-pretreated, then induced with interferon gamma and LPS
T1 sequence (Q05769 18-604): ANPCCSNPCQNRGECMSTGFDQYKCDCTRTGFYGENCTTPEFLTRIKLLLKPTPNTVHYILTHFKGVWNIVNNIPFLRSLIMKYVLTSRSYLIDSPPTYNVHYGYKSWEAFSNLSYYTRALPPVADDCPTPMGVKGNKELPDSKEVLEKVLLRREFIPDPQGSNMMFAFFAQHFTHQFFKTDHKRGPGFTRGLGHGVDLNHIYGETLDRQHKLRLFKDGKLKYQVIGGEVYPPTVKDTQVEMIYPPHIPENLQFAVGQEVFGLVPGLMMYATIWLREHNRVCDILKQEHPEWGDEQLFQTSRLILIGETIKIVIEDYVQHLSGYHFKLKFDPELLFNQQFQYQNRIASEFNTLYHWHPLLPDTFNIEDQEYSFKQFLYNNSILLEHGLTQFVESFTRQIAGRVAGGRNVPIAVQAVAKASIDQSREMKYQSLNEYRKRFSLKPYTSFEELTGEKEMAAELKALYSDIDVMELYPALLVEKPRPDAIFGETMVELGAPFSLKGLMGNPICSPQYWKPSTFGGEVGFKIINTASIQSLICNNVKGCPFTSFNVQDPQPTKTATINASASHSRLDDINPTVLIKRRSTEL
Method: Each well was treated with 250 μM of aspirin and incubated at 37° C. for 2 hours. […] Then, each well was treated with interferon γ (100 units/ml) and Iipopolysaccharide (LPS, 100 ng/ml) and incubated for 18 hours. The culture media were transferred to another test tubes. The concentration of PGE2 was quantified by means of the EIA kit (Cayman Chemicals).
(§1) The percentages of the COX inhibition were calculated according to the following equation: % Inhibition=(concentration of PGE2 in test compound-untreated sample−concentration of PGE2 in test compound-treated sample)/(concentration of PGE2 in test compound-untreated sample)×100

COX-1 = target: T2, COX-1 (Homo sapiens, UniProt P23219); test: Assay for the COX-1 inhibitory activity using U-937 (PGE2 inhibition); format: cell-based; conditions: for inhibition at 1 µM: 1 μM test compound, U-937 human lymphoma cells, PGE2 inhibition vs DMSO, read-out: Cyclooxygenase (COX) Inhibition (%) COX-1 (1 μM); for COX-1 inhibitory activity in comparison with the reference (Valdecoxib): 1 μM, U-937, comparison in words
T2 construct: host or cells: U-937 human lymphoma cells
Method: The collected cells were diluted with HBSS (×1, Hank's balanced salt solution) to a concentration of 1×10^6 cells/ml. 1 ml of the dilute cell solution was placed into each well of 12-well plates. 5 μl of 1 μM solution of a test compound in DMSO and 5 μl of DMSO as a control were added to the wells. The wells were incubated in CO2 incubator at 37° C. for 15 minutes. Separately, 10 mM stock solution of arachidonic acid in ethanol was diluted ten times in ethanol to prepare 1 mM solution of arachidonic acid. Arachidonic acid acts as a substrate. 10 μl of the 1 mM solution of arachidonic acid was added to each well and incubated at CO2 incubator at 37° C. for 30 minutes. The cell solution of each well was placed in a centrifuge test tube and centrifuged at 10,000 rpm at 4° C. for 5 minutes. The concentration of PGE2 in the collected cells and the supernatant was quantified by means of a monoclonal kit (Cayman Chemicals). The percentages of PGE2 inhibition in a group of the test compound-treated cells in relation to a group of the DMSO-treated cells were calculated. Based on the calculated values, the COX-1 inhibitory activities were evaluated.
as §1

[1] = test system: carrageenan-induced paw edema; test: Carrageenan-induced paw edema test in rats; format: in vivo; conditions: for Inhibitory effect (% inhibition): oral administration, foot swelling 3 hours after carrageenan injection vs control
Method: 2. Carrageenan-induced Paw Edema Test in Rats
The day before the test date, rats were selected in each group so that the average body weight was as close as possible, and the rats were fasted by feed withdrawal prior to the test. At the test date, the rats were orally administered with the test compounds and a control material. After 1 hour, the volume (V0h) of a predetermined portion of the left hind foot of the rats was measured with a plethysmometer. 100 μl of 1% carrageenan solution was subcutaneously injected to the left hind foot of the rats using a syringe with 1 ml capacity. Three hours after the injection of the carrageenan, the volume (V3h) of the predetermined portion of the foot was again measured. The foot swelling variation […] in a group of test compound-treated rats was compared with that of a group of control material-treated rats. With the supposition of 0% inhibition by the control (control material-treated rats), the inhibition percentage of edema of each test compound was determined.

T2 sequence (P23219 24-599): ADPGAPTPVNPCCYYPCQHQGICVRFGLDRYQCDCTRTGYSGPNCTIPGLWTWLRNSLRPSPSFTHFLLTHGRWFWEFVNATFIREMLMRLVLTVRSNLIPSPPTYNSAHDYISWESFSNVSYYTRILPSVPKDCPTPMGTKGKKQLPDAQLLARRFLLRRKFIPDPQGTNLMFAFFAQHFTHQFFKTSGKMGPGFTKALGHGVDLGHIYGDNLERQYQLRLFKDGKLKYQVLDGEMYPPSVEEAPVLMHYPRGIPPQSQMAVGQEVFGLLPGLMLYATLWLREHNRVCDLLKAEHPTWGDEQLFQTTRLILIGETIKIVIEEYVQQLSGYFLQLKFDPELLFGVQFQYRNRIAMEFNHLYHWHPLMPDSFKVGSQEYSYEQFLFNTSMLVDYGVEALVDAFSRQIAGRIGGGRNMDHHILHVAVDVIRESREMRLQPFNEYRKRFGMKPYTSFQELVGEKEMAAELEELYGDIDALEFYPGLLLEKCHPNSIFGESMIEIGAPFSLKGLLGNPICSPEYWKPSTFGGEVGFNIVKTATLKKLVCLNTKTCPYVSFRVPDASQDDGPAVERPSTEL

| inhibition at 0.01 µM (COX-2) | inhibition at 1 µM (COX-1) | COX-2 inhibitory activity in comparison with the reference (Valdecoxib) (COX-2) | selectivity (COX-2 over COX-1) (COX-2) | COX-1 inhibitory activity in comparison with the reference (Valdecoxib) (COX-1) | SMILES | Inhibitory effect (% inhibition) [1] | COX inhibitory effect (paw edema % inhibition) in comparison with Celecoxib ([1]; oral, comparison in words) |
| --- | --- | --- | --- | --- | --- | --- | --- |
| 26.8% | 23.5% |  |  |  | COc1ccc(/C=C/c2nc(C(F)(F)F)nn2-c2ccc(S(C)(=O)=O)cc2)cc1 [Example 34, 5-[2-(4-methoxyphenyl)vinyl]-1-(4-methanesulfonylphenyl)-3-trifluoromethyl-1H-[1,2,4]triazole] | 19.3 % inhibition |  |
| 12.1% | 38% |  |  |  | Cc1ccc(-c2nc(C(F)(F)F)nn2-c2ccc(S(N)(=O)=O)cc2)cc1 [Example 42, 4-(5-p-tolyl-3-trifluoromethyl-[1,2,4]triazol-1-yl)benzenesulfonamide] |  |  |
|  |  |  |  |  | COc1ccc2c(c1)c(CC(=O)O)c(C)n2C(=O)c1ccc(Cl)cc1 [Indomethacine, reference compound] | 40.1 % inhibition |  |
| 7.32% | 18.6% |  |  |  | CS(=O)(=O)c1ccc(-n2nc(C(F)(F)F)nc2-c2cccc(Cl)c2)cc1 [Example 30, 5-(3-chlorophenyl)-1-(4-methanesulfonylphenyl)-3-trifluoromethyl-1H-[1,2,4]triazole] |  |  |
| 38.6% | 11.8% | remarkably enhanced | excellent selectivities | the same as or lower | CCOc1ccc(-c2nc(C(F)(F)F)nn2-c2ccc(S(C)(=O)=O)cc2)cc1 [Example 35, 5-(4-ethoxyphenyl)-1-(4-methanesulfonylphenyl)-3-trifluoromethyl-1H-[1,2,4]triazole] | 32.3 % inhibition | remarkably improved |
|  |  |  |  |  | Cc1ccc(-c2cc(C(F)(F)F)nn2-c2ccc(S(N)(=O)=O)cc2)cc1 [Celecoxib, reference compound] | 23.9 % inhibition |  |
| 8.92% | 23.7% |  |  |  | CS(=O)(=O)c1ccc(-n2nc(C(F)(F)F)nc2-c2ccc(C#N)cc2)cc1 [Example 37, 5-(4-cyanophenyl)-1-(4-methanesulfonylphenyl)-3-trifluoromethyl-1H-[1,2,4]triazole] |  |  |
| 10.5% | 38.8% |  |  |  | CS(=O)(=O)c1ccc(-n2nc(C(F)(F)F)nc2-c2ccc(Cl)cc2)cc1 [Example 26, 5-(4-chlorophenyl)-1-(4-methanesulfonylphenyl)-3-trifluoromethyl-1H-[1,2,4]triazole] |  |  |
| 33.7% | 18.7% | remarkably enhanced | excellent selectivities | the same as or lower | CS(=O)(=O)c1ccc(-n2nc(C(F)(F)F)nc2-c2ccc3c(c2)OCO3)cc1 [Example 40, 5-benzo[1,3]dioxol-5-yl-1-(4-methanesulfonylphenyl)-3-trifluoromethyl-1H-[1,2,4]triazole] |  |  |
| 8.88% | 16.7% |  |  |  | CS(=O)(=O)c1ccc(-n2nc(C(F)(F)F)nc2-c2ccncc2)cc1 [Example 41, 4-[2-(4-methanesulfonylphenyl)-5-trifluoromethyl-2H-[1,2,4]triazol-3-yl]pyridine] |  |  |
| 6.23% | 21.6% |  |  |  | CC(C)(C)c1ccc(-c2nc(C(F)(F)F)nn2-c2ccc(S(C)(=O)=O)cc2)cc1 [Example 36, 5-(4-t-butylphenyl)-1-(4-methanesulfonylphenyl)-3-trifluoromethyl-1H-[1,2,4]triazole] |  |  |
| 5.95% | 19.5% |  |  |  | CS(=O)(=O)c1ccc(-n2nc(C(F)(F)F)nc2-c2ccc([N+](=O)[O-])cc2Cl)cc1 [Example 38, 5-(4-nitro-2-chlorophenyl)-1-(4-methanesulfonylphenyl)-3-trifluoromethyl-1H-[1,2,4]triazole] |  |  |
| 12.6% | 19.9% |  |  |  | COc1ccc(-c2nc(C(F)(F)F)nn2-c2ccc(S(C)(=O)=O)cc2)c(OC)c1 [Example 32, 5-(2,4-dimethoxyphenyl)-1-(4-methanesulfonylphenyl)-3-trifluoromethyl-1H-[1,2,4]triazole] |  |  |
| 32.6% | 12.5% | remarkably enhanced | excellent selectivities | the same as or lower | COc1ccc(-c2nc(C(F)(F)F)nn2-c2ccc(S(C)(=O)=O)cc2)cc1Cl [Example 39, 5-(3-chloro-4-methoxyphenyl)-1-(4-methanesulfonylphenyl)-3-trifluoromethyl-1H-[1,2,4]triazole] |  |  |
| 7.62% | 29.2% |  |  |  | CS(=O)(=O)c1ccc(-n2nc(C(F)(F)F)nc2-c2ccccc2)cc1 [Example 25, 1-(4-methanesulfonylphenyl)-5-phenyl-3-trifluoromethyl-1H-[1,2,4]triazole] |  |  |
| 6.23% | 16.7% |  |  |  | CS(=O)(=O)c1ccc(-n2nc(C(F)(F)F)nc2-c2cccc(Br)c2)cc1 [Example 29, 5-(3-bromophenyl)-1-(4-methanesulfonylphenyl)-3-trifluoromethyl-1H-[1,2,4]triazole] |  |  |
| 3.21% | 14.6% |  |  |  | CS(=O)(=O)c1ccc(-n2nc(C(F)(F)F)nc2-c2ccc(Br)cc2)nn1 [Example 49, 3-[5-(4-bromophenyl)-3-trifluoromethyl-[1,2,4]triazol-1-yl]-6-methanesulfonyl pyridazine] |  |  |
| 19.2% | 19.2% |  |  |  | CS(=O)(=O)c1ccc(-n2nc(C(F)(F)F)nc2/C=C/c2ccccc2)cc1 [Example 33, 5-styryl-1-(4-methanesulfonylphenyl)-3-trifluoromethyl-1H-[1,2,4]triazole] |  |  |
| 5.63% | 28.8% |  |  |  | COc1ccc(-c2nc(C(F)(F)F)nn2-c2ccc(S(C)(=O)=O)nc2)cc1 [Example 48, 2-methanesulfonyl-5-[5-(4-methoxyphenyl)-3-trifluoromethyl-[1,2,4]triazol-1-yl]pyridine] |  |  |
| 4.32% | 10.6% |  |  |  | COc1ccc(-c2nc(C(F)(F)F)nn2-c2ccc(S(C)(=O)=O)nn2)cc1 [Example 50, 3-[5-(4-methoxyphenyl)-3-trifluoromethyl-[1.2.4]triazol-1-yl]-6-methanesulfonyl pyridazine] |  |  |
| 5.66% | 16.5% |  |  |  | CS(=O)(=O)c1ccc(-n2nc(C(F)(F)F)nc2-c2cccc(C(F)(F)F)c2)cc1 [Example 31, 5-(3-trifluoromethylphenyl)-1-(4-methanesulfonylphenyl)-3-trifluoromethyl-1H-[1,2,4]triazole] |  |  |
| 4.26% | 21.9% |  |  |  | CS(=O)(=O)c1ccc(-n2nc(C(F)(F)F)nc2-c2ccc(Br)cc2)cn1 [Example 47, 2-methanesulfonyl-5-[5-(4-bromophenyl)-3-trifluoromethyl-[1,2,4]triazol-1-yl]pyridine] |  |  |
